Data on 17 compounds can be found in patent US10150747B2, “Compounds for the treatment of hepatitis C” (BRISTOL-MYERS SQUIBB COMPANY, priority 2015, dated 2018).

Test [1] addresses HCV NS5B genotype 1b (Con1) (Hepatitis C virus genotype 1b (isolate Con1) (HCV), UniProt Q9WMX2). Kind of test: HCV NS5B RdRp enzyme assay (1b enzyme). The test is classed as biochemical. To be noted: genotype 1b NS5B enzyme. The method, then:
HCV NS5B RdRp Cloning, Expression, and Purification.
The cDNA encoding NS5B proteins of HCV genotype 1b (Con1), a genotype 1b variant with amino acid 316 mutated from cysteine to asparagine, and genotype 2a (JFH-1), were cloned into the pET21a expression vector. Each untagged protein was expressed with an 18 amino acid C-terminal truncation to enhance the solubility. The E. coli competent cell line BL21(DE3) was used for expression of the protein. Cultures were grown at 37° C. for ˜4 hours until the cultures reached an optical density of 2.0 at 600 nm. The cultures were cooled to 20° C. and induced with 1 mM IPTG. Fresh ampicillin was added to a final concentration of 50 μg/mL and the cells were grown overnight at 20° C.
The lysis buffer consisted of 20 mM Tris-HCl, pH 7.4, 500 mM NaCl, 0.5% triton X-100, 1 mM DTT, 1 mM EDTA, 20% glycerol, 0.5 mg/mL lysozyme, 10 mM MgCl2, 15 ug/mL deoxyribonuclease I, and Complete TM protease inhibitor tablets (Roche). After addition of the lysis buffer, frozen cell pellets were resuspended using a tissue homogenizer. To reduce the viscosity of the sample, aliquots of the lysate were sonicated on ice using a microtip attached to a Branson sonicator. The sonicated lysate was centrifuged at 100,000×g for 30 minutes at 4° C. and filtered through a 0.2 μm filter unit (Corning).
The protein was purified using two sequential chromatography steps: Heparin sepharose CL-6B and polyU sepharose 4B. The chromatography buffers were identical to the lysis buffer but contained no lysozyme, deoxyribonuclease I, MgCl2 or protease inhibitor and the NaCl concentration of the buffer was adjusted according to the requirements for charging the protein onto the column. Each column was eluted with a NaCl gradient which varied in length from 5-50 column volumes depending on the column type. […] The enzyme was aliquoted and stored at −80° C.
HCV NS5B RdRp Enzyme Assay.
An on-bead solid phase homogeneous assay was used in a 384-well format to assess NS5B inhibitors (WangY-K, Rigat K, Roberts S, and Gao M (2006) Anal Biochem, 359: 106-111). The biotinylated oligo dT12 primer was captured on streptavidin-coupled imaging beads (GE, RPNQ0261) by mixing primer and beads in 1× buffer and incubating at room temperature for three hours. Unbound primer was removed after centrifugation. The primer-bound beads were resuspended in 3× reaction mix (20 mM Hepes buffer, pH 7.5, dT primer coupled beads, poly A template, ^3H-UTP, and RNAse inhibitor (Promega N2515)). Compounds were serially diluted 1:3 in DMSO and aliquoted into assay plates. Equal volumes (5 μL) of water, 3× reaction mix, and enzyme in 3× assay buffer (60 mM Hepes buffer, pH 7.5, 7.5 mM MgCl2, 7.5 mM KCl, 3 mM DTT, 0.03 mg/mL BSA, 6% glycerol) were added to the diluted compound on the assay plate. Final concentration of components in 384-well assay: 0.36 nM template, 15 nM primer, 0.29 μM ^3H-UTP (0.3 μCi), 1.6 U/4 RNAse inhibitor, 7 nM NS5B enzyme, 0.01 mg/mL BSA, 1 mM DTT, and 0.33 μg/μL beads, 20 mM Hepes buffer, pH 7.5, 2.5 mM MgCl2, 2.5 mM KCl, and 0.1% DMSO.
Reactions were allowed to proceed for 24 hours at 30° C. and terminated by the addition of 50 mM EDTA (5 μL). After incubating for at least 15 minutes, plates were read on an Amersham LEADseeker multimodality imaging system.
IC50 values for compounds were determined using ten different [I]. IC50 values were calculated from the inhibition using the four-parameter logistic formula y=A+((B−A)/(1+((C/x)^D))), where A and B denote minimal and maximal % inhibition, respectively, C is the IC50, D is hill slope and x represents compound concentration.

Test [2] relates to genotype 1b (Con-1) HCV replicon in Huh-7 cells. Kind of test: HCV replicon luciferase assay (1b replicon). The test is classed as cell-based. To be noted: Hepatitis C virus. As for the experimental part: The cell lines used to evaluate compounds consist of a human hepatocyte derived cell line (Huh-7) that constitutively expresses a genotype 1b (Con-1) HCV replicon or a genotype 1b (Con-1) HCV replicon with an asparagine replacing the cysteine at amino acid 316, or a genotype 2a (JFH-1) replicon, containing a Renilla luciferase reporter gene. These cells were maintained in Dulbecco's modified Eagle medium (DMEM) containing 10% FBS, 100 U/mL penicillin/streptomycin and 1.0 mg/mL G418.
HCV Replicon Luciferase Assay.
After 3 days incubation at 37° C., cells were analyzed for Renilla Luciferase activity using the EnduRen substrate (Promega cat #E6485) according to the manufacturer's directions. Briefly, the EnduRen substrate was diluted in DMEM and then added to the plates to a final concentration of 7.5 μM. The plates were incubated for at least 1 h at 37° C. then read on a Viewlux Imager (PerkinElmer) using a luminescence program.
On the technique in general: In antiviral work, replicon cells carry a viral genome segment that copies itself.

Setting [3] is: 72 h, genotype 1b replicon, Huh-7, Renilla luciferase, 3 days incubation, read-out: EC50.

Like-named read-outs stand apart in the source and are kept apart here.

Chain of HCV NS5B genotype 1b (Con1) (Q9WMX2 2420-2992): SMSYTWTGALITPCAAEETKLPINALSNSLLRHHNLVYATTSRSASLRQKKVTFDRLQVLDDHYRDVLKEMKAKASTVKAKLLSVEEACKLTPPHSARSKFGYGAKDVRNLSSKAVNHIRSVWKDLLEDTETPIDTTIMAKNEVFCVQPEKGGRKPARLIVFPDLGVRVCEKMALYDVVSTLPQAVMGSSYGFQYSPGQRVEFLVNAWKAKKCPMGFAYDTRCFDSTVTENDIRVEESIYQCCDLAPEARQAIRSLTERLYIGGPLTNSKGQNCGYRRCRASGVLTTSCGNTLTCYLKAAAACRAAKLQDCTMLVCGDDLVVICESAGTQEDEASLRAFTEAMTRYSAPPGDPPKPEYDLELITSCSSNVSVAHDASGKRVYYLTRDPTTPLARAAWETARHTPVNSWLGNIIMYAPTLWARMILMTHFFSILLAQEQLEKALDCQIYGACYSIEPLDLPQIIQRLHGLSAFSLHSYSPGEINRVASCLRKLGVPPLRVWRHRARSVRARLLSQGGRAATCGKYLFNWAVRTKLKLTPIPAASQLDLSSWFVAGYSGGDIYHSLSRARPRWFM

As a reminder, the IC50 is the concentration that inhibits the measured activity by half. Higher therefore signals weaker potency in that assay. For orientation: EC50 means the concentration at which the effect is half-maximal. Regarding `CNC(=O)c1c(-c2ccc(F)cc2)oc2cc(OCC(F)(F)F)c(-c3cccc(C(=O)NC4(c5ncccn5)CC4)c3)cc12` [Example 1, 2-(4-Fluorophenyl)-N-methyl-5-(3-((1-(pyrimidin-2-yl)cyclopropyl)carbamoyl)phenyl)-6-(2,2,2-trifluoroethoxy)benzofuran-3-carboxamide], half-maximal inhibition in test [1] (IC50) was put at 7.42 nM. In addition, the EC50 in test [2] (setting [3]) turned out to be 10 nM.
Regarding `CNC(=O)c1c(-c2ccc(F)cc2)oc2cc(OCC(F)(F)F)c(-c3ccc(OC)c(C(=O)NC4(c5ncccn5)CC4)c3)cc12` [Example 2, 2-(4-Fluorophenyl)-5-(4-methoxy-3-((1-(pyrimidin-2-yl)cyclopropyl)carbamoyl)phenyl)-N-methyl-6-(2,2,2-trifluoroethoxy)benzofuran-3-carboxamide], in test [1], the IC50 was found to be 4.15 nM. Further, the EC50 in test [2] (setting [3]) came to 6.24 nM.
On the same counts, the results for `CNC(=O)c1c(-c2ccc(F)cc2)oc2cc(OCC(F)(F)F)c(-c3ccc(F)c(C(=O)NC4(c5ncccn5)CC4)c3)cc12` [Example 3, 5-(4-Fluoro-3-((1-(pyrimidin-2-yl)cyclopropyl)carbamoyl)phenyl)-2-(4-fluorophenyl)-N-methyl-6-(2,2,2-trifluoroethoxy)benzofuran-3-carboxamide] are 4.38 nM and 6.7 nM.
`CNC(=O)c1c(-c2ccc(F)cc2)oc2cc(OCC(F)(F)F)c(-c3ccc(F)c(C(=O)NC45CC(C4)C5)c3)cc12` [Example 4, 5-(3-(Bicyclo[1.1.1]pentan-1-ylcarbamoyl)-4-fluorophenyl)-2-(4-fluorophenyl)-N-methyl-6-(2,2,2-trifluoroethoxy)benzofuran-3-carboxamide] displayed an IC50 in test [1] of 3.88 nM. In test [2] (setting [3]), the EC50 came out at 8.61 nM.
With `CCOc1cc2oc(-c3ccc(F)cc3)c(C(=O)NC)c2cc1-c1cccc(C(=O)NC23CC(C2)C3)c1` [Example 5, 5-(3-(Bicyclo[1.1.1]pentan-1-ylcarbamoyl)phenyl)-6-ethoxy-2-(4-fluorophenyl)-N-methylbenzofuran-3-carboxamide], in test [1], the IC50 worked out at 4.3 nM. The EC50 in test [2] (setting [3]) stood at 6.5 nM.
As for `CCOc1cc2oc(-c3ccc(F)cc3)c(C(=O)NC)c2cc1-c1cccc(C(=O)NC2(c3ncccn3)CC2)c1` [Example 7, 6-Ethoxy-2-(4-fluorophenyl)-N-methyl-5-(3-((1-(pyrimidin-2-yl)cyclopropyl)carbamoyl)phenyl)benzofuran-3-carboxamide], the IC50 in test [1] stood at 5.78 nM. For the same compound, the EC50 in test [2] (setting [3]) is 10 nM.
`CNC(=O)c1c(-c2ccc(F)cc2)oc2cc(OCC(F)(F)F)c(-c3cccc(C(=O)NC4(C#N)CC4)c3)cc12` [Example 8, 5-(3-((1-Cyanocyclopropyl)carbamoyl)phenyl)-2-(4-fluorophenyl)-N-methyl-6-(2,2,2-trifluoroethoxy)benzofuran-3-carboxamide] gave an IC50 in test [1] of 4.97 nM. Moreover, the EC50 in test [2] (setting [3]) was 20 nM.
In turn, `CNC(=O)c1c(-c2ccc(F)cc2)oc2cc(OCC(F)(F)F)c(-c3cccc(C(=O)NC(C)(C)C#N)c3)cc12` [Example 10, 5-(3-((2-Cyanopropan-2-yl)carbamoyl)phenyl)-2-(4-fluorophenyl)-N-methyl-6-(2,2,2-trifluoroethoxy)benzofuran-3-carboxamide] yielded an IC50 in test [1] of 3.02 nM. The EC50 in test [2] (setting [3]) is 5.01 nM.
In the case of `CCOc1cc2oc(-c3ccc(F)cc3)c(C(=O)NC)c2cc1-c1ccc(OC)c(C(=O)NC23CC(C2)C3)c1` [Example 11, 5-(3-(Bicyclo[1.1.1]pentan-1-ylcarbamoyl)-4-methoxyphenyl)-6-ethoxy-2-(4-fluorophenyl)-N-methylbenzofuran-3-carboxamide], the EC50 in test [2] (setting [3]) is 9.63 nM.
For `CCOc1cc2oc(-c3ccc(F)cc3)c(C(=O)NC)c2cc1-c1ccc(OC)c(C(=O)NC2(c3ncccn3)CC2)c1` [Example 12, 6-Ethoxy-2-(4-fluorophenyl)-5-(4-methoxy-3-((1-(pyrimidin-2-yl)cyclopropyl)carbamoyl)phenyl)-N-methylbenzofuran-3-carboxamide], the IC50 in test [1] came out at 1.89 nM. Further, in test [2] (setting [3]), the EC50 was 4.2 nM.
In turn, `CCOc1cc2oc(-c3ccc(F)cc3)c(C(=O)NC)c2cc1-c1cnc(OC)c(C(=O)NC2(c3ncccn3)CC2)c1` [Example 13, 5-(6-Ethoxy-2-(4-fluorophenyl)-3-(methylcarbamoyl)benzofuran-5-yl)-2-methoxy-N-(1-(pyrimidin-2-yl)cyclopropyl)nicotinamide] gave an IC50 in test [1] of 2.72 nM. In addition, in test [2] (setting [3]), the EC50 came to 3.67 nM.
In test [1], `CCOc1cc2oc(-c3ccc(F)cc3)c(C(=O)NC)c2cc1-c1cnc(OC)c(C(=O)NC23CC(C2)C3)c1` [Example 15, N-(bicyclo[1.1.1]pentan-1-yl)-5-(6-ethoxy-2-(4-fluorophenyl)-3-(methylcarbamoyl)benzofuran-5-yl)-2-methoxynicotinamide] showed an IC50 of 2.48 nM. Also, the EC50 in test [2] (setting [3]) was 7.03 nM.
For `[2H]C([2H])([2H])Oc1ncc(-c2cc3c(C(=O)NC)c(-c4ccc(F)cc4)oc3cc2OCC)cc1C(=O)NC(C)(C)C#N` [Example 17, N-(2-cyanopropan-2-yl)-5-(6-ethoxy-2-(4-fluorophenyl)-3-(methylcarbamoyl)benzofuran-5-yl)-2-(methoxy-d3)nicotinamide], it took 1.84 nM to reach half-maximal inhibition in test [1] (IC50). Moreover, a half-maximal response in test [2] (Huh-7, 72 h) (EC50) required 2.8 nM.
In test [1], `CNC(=O)c1c(-c2ccc(F)cc2)oc2cc(OCC(F)(F)F)c(-c3ccc(OC)c(C(=O)NC(C)(C)c4ncon4)c3)cc12` [Example 18, 5-(3-((2-(1,2,4-oxadiazol-3-yl)propan-2-yl)carbamoyl)-4-methoxyphenyl)-2-(4-fluorophenyl)-N-methyl-6-(2,2,2-trifluoroethoxy)benzofuran-3-carboxamide] had an IC50 of 2.83 nM. For the same compound, in test [2] (setting [3]), the EC50 came to 2.85 nM.
In the same order, the values of `CNC(=O)c1c(-c2ccc(F)cc2)oc2cc(OCC(F)F)c(-c3cccc(C(=O)NC(C)(C)c4ncon4)c3)cc12` [Example 19, 5-(3-((2-(1,2,4-Oxadiazol-3-yl)propan-2-yl)carbamoyl)phenyl)-6-(2,2-difluoroethoxy)-2-(4-fluorophenyl)-N-m ethylbenzofuran-3-carboxamide] are 4.2 nM and 7.41 nM.
Turning to `CNC(=O)c1c(-c2ccc(F)cc2)oc2cc(OCC(F)(F)F)c(-c3cnc(OC)c(C(=O)NC45CC(C4)C5)c3)cc12` [Example 30, N-(Bicyclo[1.1.1]pentan-1-yl)-5-(2-(4-fluorophenyl)-3-(methylcarbamoyl)-6-(2,2,2-trifluoroethoxy)benzofuran-5-yl)-2-methoxynicotinamide], in test [2] (setting [3]), the EC50 stood at 10 nM.
`CNC(=O)c1c(-c2ccc(F)cc2)oc2cc(OCC(F)(F)F)c(-c3cnc(OC)c(C(=O)NC(C)(C)c4ncon4)c3)cc12` [Example 31, N-(2-(1,2,4-Oxadiazol-3-yl)propan-2-yl)-5-(2-(4-fluorophenyl)-3-(methylcarbamoyl)-6-(2,2,2-trifluoroethoxy)benzofuran-5-yl)-2-methoxynicotinamide]: the EC50 in test [2] (setting [3]) is 3.21 nM.
